Earlier results in patent publication US12673067B2, “Methods, agents, and devices for local neuromodulation of autonomic nerves” (Tulavi Therapeutics, Inc., priority 2016, dated 2026).
Where two headings read alike, the source gives them in different places. Blank lines part the entries; values can stand above or below the compound they belong to.

Legend:
FFA1 [1] = biological target: T1, FFA1 (Homo sapiens, UniProt O14842); conditions: Ca2+ mobilization, fluorescent indicator
GPR120 = biological target: T2, GPR120 (Homo sapiens, UniProt Q5NUL3); conditions: Ca2+ mobilization, fluorescent indicator
T2 sequence (Q5NUL3 1-361): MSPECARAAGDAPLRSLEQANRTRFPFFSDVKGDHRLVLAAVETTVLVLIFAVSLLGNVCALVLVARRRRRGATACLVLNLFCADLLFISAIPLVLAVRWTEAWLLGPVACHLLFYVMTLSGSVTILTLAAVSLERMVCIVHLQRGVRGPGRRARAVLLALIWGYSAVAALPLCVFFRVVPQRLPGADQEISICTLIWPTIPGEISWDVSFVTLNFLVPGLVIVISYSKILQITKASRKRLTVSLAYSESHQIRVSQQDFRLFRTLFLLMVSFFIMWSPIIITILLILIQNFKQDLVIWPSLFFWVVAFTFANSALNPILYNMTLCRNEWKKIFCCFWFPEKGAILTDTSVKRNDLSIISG

PPARα = biological target: T3, PPARα (Homo sapiens, UniProt Q07869)
T3 sequence (Q07869 1-468): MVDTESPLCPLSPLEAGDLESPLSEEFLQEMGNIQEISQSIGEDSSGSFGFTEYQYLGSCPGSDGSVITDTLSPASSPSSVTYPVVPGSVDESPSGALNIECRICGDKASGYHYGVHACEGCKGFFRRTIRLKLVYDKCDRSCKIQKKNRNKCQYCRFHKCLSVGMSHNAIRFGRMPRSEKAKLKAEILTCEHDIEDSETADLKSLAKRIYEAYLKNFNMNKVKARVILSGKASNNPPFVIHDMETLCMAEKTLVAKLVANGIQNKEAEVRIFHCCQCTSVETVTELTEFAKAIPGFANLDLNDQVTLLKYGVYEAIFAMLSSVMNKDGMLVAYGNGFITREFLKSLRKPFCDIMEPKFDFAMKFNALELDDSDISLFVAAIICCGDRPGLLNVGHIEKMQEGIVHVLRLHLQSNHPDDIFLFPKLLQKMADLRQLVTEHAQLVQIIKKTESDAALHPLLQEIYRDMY

PPARδ = biological target: T4, PPARδ (Homo sapiens, UniProt Q03181)
T4 sequence (Q03181 1-441): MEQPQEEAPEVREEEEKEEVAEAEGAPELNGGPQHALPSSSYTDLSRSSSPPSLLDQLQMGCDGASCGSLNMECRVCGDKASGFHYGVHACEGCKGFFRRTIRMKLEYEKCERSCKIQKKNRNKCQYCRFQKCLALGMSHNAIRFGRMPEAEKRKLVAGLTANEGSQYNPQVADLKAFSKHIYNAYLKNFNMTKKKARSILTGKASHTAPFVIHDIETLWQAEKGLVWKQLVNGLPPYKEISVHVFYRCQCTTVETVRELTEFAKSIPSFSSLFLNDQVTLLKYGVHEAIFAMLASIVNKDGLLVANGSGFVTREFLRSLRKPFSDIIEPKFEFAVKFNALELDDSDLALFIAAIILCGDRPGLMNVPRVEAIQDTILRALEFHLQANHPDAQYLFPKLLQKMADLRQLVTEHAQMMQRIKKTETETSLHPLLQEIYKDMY

PPARγ = biological target: T5, PPARγ (Homo sapiens, UniProt P37231)
T5 sequence (P37231 1-505): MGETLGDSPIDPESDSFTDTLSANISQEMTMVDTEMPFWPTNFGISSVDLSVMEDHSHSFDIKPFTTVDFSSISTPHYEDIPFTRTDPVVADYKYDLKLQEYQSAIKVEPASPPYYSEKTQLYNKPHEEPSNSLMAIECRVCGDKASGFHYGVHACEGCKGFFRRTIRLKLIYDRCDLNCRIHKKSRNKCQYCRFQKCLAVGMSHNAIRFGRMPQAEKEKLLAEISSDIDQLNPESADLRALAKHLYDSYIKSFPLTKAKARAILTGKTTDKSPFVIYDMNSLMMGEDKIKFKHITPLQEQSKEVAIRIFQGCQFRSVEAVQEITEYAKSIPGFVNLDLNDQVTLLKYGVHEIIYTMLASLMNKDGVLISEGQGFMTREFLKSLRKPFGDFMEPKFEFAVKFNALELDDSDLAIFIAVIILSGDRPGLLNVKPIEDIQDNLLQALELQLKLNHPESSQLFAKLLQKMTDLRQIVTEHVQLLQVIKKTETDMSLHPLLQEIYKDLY

FFA1 [2] = biological target: T1, FFA1; conditions: footnote a: ERK activation (Smith 2009) or aequorin reporter (Kotarsky 2003)
H+K+ATPase = biological target: T6, H+K+ATPase (Oryctolagus cuniculus, UniProt P27112); conditions: microsomal membranes from rabbit fundic mucosa; read-out: IC50, inhibition of isolated H+K+ATPase enzyme activity
T6 construct: a preparation of microsomal membranes from rabbit fundic mucosa; from tissue; host or cells: rabbit fundic mucosa, microsomal membranes

[3] = tested on: organic anion transporters (OAT); conditions: at 0.5-1 mM
Aquaporin 4 (AQP4) = conditions: pretreatment, mouse focal cerebral ischemia
KCC2 = biological target: T7, KCC2 (Homo sapiens, UniProt Q9H2X9)
T7 sequence (Q9H2X9 1-1139): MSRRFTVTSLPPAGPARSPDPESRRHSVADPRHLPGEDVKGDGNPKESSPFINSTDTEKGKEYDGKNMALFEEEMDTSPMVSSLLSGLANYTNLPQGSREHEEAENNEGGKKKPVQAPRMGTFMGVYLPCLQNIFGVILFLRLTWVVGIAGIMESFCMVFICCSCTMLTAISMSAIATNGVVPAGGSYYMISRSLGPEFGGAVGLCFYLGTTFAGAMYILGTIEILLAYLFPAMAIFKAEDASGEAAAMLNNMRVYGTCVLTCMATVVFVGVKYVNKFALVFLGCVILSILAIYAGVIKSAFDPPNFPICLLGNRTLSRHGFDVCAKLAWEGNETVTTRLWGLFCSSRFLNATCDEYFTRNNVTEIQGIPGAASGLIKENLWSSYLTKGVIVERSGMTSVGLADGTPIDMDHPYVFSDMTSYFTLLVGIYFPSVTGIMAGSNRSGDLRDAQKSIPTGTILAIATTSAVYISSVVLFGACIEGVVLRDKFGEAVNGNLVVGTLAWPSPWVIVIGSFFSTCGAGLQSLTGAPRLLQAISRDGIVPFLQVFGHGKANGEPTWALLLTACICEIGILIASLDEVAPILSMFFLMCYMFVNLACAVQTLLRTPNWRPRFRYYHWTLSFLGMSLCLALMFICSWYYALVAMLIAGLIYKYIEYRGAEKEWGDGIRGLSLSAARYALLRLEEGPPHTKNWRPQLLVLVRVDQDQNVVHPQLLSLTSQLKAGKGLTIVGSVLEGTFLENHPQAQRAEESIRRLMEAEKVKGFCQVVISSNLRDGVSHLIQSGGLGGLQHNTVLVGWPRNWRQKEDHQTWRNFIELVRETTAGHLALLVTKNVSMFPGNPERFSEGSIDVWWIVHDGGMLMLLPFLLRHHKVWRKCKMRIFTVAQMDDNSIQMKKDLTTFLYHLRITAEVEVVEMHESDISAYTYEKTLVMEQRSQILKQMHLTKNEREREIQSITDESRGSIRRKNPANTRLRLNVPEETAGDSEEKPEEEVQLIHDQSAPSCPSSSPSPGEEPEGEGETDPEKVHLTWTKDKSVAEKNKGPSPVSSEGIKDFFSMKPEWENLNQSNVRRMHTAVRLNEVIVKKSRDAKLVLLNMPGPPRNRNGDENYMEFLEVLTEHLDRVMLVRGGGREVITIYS

[4] = rats
[5] = in vivo
stellate ganglion = conditions: dog, in vivo

T1 sequence (O14842 whole entry): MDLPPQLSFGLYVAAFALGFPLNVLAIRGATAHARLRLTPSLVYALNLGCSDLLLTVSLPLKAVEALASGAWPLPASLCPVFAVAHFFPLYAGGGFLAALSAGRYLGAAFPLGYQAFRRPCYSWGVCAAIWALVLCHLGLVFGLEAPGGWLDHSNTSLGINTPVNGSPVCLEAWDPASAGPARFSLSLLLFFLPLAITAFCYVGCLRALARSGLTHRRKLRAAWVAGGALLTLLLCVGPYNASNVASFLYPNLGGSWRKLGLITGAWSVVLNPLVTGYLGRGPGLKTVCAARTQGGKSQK
T6 sequence (P27112 whole entry): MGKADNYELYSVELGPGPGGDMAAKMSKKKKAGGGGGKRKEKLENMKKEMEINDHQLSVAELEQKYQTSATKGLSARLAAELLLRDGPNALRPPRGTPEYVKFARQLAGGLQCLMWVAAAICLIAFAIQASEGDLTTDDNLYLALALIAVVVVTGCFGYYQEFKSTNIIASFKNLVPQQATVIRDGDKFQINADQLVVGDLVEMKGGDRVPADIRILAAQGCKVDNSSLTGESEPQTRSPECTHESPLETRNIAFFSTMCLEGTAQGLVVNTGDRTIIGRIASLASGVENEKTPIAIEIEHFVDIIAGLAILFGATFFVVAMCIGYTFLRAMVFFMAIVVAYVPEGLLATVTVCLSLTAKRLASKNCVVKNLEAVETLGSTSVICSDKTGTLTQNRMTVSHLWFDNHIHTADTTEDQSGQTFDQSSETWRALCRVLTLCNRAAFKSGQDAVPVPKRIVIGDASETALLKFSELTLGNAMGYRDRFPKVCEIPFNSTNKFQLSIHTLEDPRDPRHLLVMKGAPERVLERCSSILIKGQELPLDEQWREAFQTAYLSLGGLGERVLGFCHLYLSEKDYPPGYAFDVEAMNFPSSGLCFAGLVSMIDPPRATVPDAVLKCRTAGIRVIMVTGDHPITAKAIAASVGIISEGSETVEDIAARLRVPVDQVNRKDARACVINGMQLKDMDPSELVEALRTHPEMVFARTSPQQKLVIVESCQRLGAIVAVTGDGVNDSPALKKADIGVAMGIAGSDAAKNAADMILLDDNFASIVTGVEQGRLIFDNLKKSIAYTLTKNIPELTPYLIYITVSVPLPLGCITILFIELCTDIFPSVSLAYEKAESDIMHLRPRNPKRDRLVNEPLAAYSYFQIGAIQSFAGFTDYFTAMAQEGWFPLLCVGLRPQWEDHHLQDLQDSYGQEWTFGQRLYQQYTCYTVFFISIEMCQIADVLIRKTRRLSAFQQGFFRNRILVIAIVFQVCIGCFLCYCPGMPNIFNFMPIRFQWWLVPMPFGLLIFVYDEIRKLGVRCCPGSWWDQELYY
T6 sequence (P18597 whole entry partner): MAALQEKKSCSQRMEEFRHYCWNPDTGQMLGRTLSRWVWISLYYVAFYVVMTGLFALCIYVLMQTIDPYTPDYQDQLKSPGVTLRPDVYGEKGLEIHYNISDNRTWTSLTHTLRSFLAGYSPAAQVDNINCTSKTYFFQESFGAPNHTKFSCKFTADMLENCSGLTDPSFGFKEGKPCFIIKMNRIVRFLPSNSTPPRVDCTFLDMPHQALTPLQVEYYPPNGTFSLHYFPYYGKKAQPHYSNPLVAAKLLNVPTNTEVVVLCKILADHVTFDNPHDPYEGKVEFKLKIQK

Compound: O=c1c2ccc(O)c(O)c2oc2c(O)c(O)ccc12 [3,4,5,6-Tetrahydroxyxanthone]
affinity of Na/K ATPase pump inhibition (Na/K ATPase): comparable to ouabain

Compound: CC/C=C\C/C=C\C/C=C\C/C=C\C/C=C\C/C=C\CCC(=O)O [DHA (C22:6), DHA]
FFA1 pEC50 (FFA1 [1]): 5.4-6.0
GPR120 pEC50 (GPR120): 5.4

Compound: O=C(O)CCc1ccc(NCc2cccc(Oc3ccccc3)c2)cc1 [GW9508]
FFA1 pEC50 (FFA1 [1]): 6.6-7.3
pEC50 for PPARα (PPARα): 4.0
pEC50 for PPARδ (PPARδ): 4.0
pEC50 for PPARγ (PPARγ): 4.9

Compound: O=C(O)CCCc1ccc(OCCN(c2ccccc2)c2ccccn2)cc1 [NCG21 (Cpd 12)]
FFA1 pEC50 (FFA1 [1]): 4.7
GPR120 pEC50 (GPR120): 5.9
PPARα agonist activity (PPARα; at 100 μM): Lacks PPARα, δ, and γ
PPARδ agonist activity (PPARδ; at 100 μM): Lacks PPARα, δ, and γ
PPARγ agonist activity (PPARγ; at 100 μM): Lacks PPARα, δ, and γ

Compound: CCCCCCCC/C=C\CCCCCCCC(=O)O [Oleic acid (C18:1), Oleic acid]
FFA1 pEC50 (FFA1 [1]): 4.4-5.7

Compound: CCCCCCCCCCCCCCCC(=O)O [Palmitic acid (C18:0), Palmitic acid]
FFA1 pEC50 (FFA1 [1]): 5.2-5.3

Compound: Cc1ccc(CN(Cc2ccc(-c3ccccc3S(=O)(=O)NC#N)cc2)C(=O)c2ccccc2Cl)cc1 [S0859]
inhibition of Na+-H+ exchange (NHE) (Na+-H+ exchange (NHE)): does not inhibit

Compound: C=C1C[C@@]23CC[C@H]4[C@@](C)(CCC[C@@]4(C)C(=O)O[C@@H]4O[C@H](CO)[C@@H](O)[C@H](O)[C@H]4O)[C@@H]2CC[C@]1(O[C@@H]1O[C@H](CO)[C@@H](O)[C@H](O)[C@H]1O[C@@H]1O[C@H](CO)[C@@H](O)[C@H](O)[C@H]1O)C3 [Stevioside]
interaction with organic anion transporters (OAT) [3]: no interaction
genotoxic effects (cultured mammalian cells): genotoxic effects

Compound: O=C(Nc1nncs1)c1cccnc1 [TGN-020]
volume of brain edema associated with ischemic injury (Aquaporin 4 (AQP4)): significantly reduced

Compound: NGF: nerve growth factor injected into the stellate ganglion of dogs
QTc (stellate ganglion): shortened
QTc interval (stellate ganglion): prolonged
SCD (stellate ganglion): did not cause SCD
risk of SCD (stellate ganglion): 50%

The next lines start with results.

FFA1 pEC50 (FFA1 [2]): 5.0-5.6^a
Compound: CN(CCOc1ccc(CC2SC(=O)NC2=O)cc1)c1ccccn1 (centres unmarked) [Rosiglitazone]

IC50 (H+K+ATPase): 200 µM
Compound: Cc1nc2c(OCc3ccccc3)nccn2c1N [SCH 32651]

IC50 (H+K+ATPase): 2.5 µM
Compound: Cc1nc2c(OCc3ccccc3)cccn2c1CC#N [SCH-28080]

selectivity for KCC2 over NKCCI (KCC2): selective
Compound: Cc1csc(NC(=O)CSc2ccc(-c3ccccc3)nn2)n1 [VU024055 1]

peripheral sensory axonopathy [5]: causes peripheral sensory axonopathy
Compound: N=C(N)NC(=O)c1cnn(-c2cccc3ncccc23)c1C1CC1 [Zoniporide]
swelling of human platelets (human platelets): inhibits
cardiac contractile dysfunction [4]: attenuates
